Assays:
PKCζ = biological target: T1, PKCζ (Homo sapiens, UniProt Q05513); experiment: Cell-free PKC assay; type: biochemical; settings: 100 μM, FIG. 6
T1 sequence (Q05513 1-592): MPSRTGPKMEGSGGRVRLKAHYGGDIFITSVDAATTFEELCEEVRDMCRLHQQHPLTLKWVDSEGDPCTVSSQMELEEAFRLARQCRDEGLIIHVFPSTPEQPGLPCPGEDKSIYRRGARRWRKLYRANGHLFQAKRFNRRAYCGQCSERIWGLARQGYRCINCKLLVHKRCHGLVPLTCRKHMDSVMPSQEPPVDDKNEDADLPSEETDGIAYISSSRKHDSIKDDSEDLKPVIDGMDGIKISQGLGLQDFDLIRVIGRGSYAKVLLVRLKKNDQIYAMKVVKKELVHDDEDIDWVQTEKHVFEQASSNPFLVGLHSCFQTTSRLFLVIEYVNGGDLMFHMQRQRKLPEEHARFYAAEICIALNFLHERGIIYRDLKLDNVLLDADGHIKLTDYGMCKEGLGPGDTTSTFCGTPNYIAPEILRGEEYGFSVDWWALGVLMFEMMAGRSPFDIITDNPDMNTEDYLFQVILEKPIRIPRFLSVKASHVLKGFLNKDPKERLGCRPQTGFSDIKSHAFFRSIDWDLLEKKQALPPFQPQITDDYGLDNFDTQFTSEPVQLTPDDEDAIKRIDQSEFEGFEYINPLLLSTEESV
Experimental: (§1) PKC activity in a cell-free system was quantified by the method described in a previous report (Kanno T et al. J Lipid Res 2006; 47: 1146-1156). In short, synthesized PKC substrate peptide (10 μM) was reacted with various PKC isozymes in a medium containing 20 mM Tris-HCl (pH 7.5), 5 mM magnesium acetate, 10 μM ATP, and DCP-LA-phospholipid in the absence of phosphatidylserine and diacylglycerol at 30° C. for 5 min. A Ca^2+-free medium was used for novel PKC such as PKC-δ, -ε and the like, and a 100 μM CaCl2-containing medium was used for other PKC isozymes. They were loaded on reversed-phase HPLC (LC-10ATvp, Shimadzu Co., Kyoto, Japan), and the peaks of substrate peptide and new resultant products were measured at an absorbance of 214 nm. The areas of non-phosphorylated PKC substrate peptide and phosphorylated PKC substrate peptide were measured (total area corresponds to the concentration of PKC substrate peptide used in this Example), and the amount of the phosphorylated substrate peptide was calculated. The amount of the phosphorylated substrate peptide (pmol/1 min) per 1 min was used as an index of the PKC activity.

PKC isozymes = experiment: Cell-free PKC assay; type: biochemical; settings: 100 μM, FIG. 5
Experimental: as §1

[1] = test system: 3T3L1-GLUT4myc adipocytes having a knocked-down insulin receptor; experiment: GLUT4 trafficking in adipocytes with knocked-down insulin receptor; type: cell-based; settings: 1 μM, 20 min, absence of insulin, FIG. 12
Experimental: 3T3L1-GLUT4myc adipocytes were incubated in Krebs-Ringer-HEPES buffer [136 mM NaCl, 4.7 mM KCl, 1.25 mM CaCl2, 1.25 mM MgSO4 and 20 mM HEPES, pH 7.5] containing 0.2% (w/v) bovine serum albumin and added with 10 mM glucose at 37° C. for 1 hr. The cells were incubated in the presence or absence of insulin, phospholipid or a derivative thereof for 20 min. Then, the cells were homogenized by sonication in an ice-cooled mitochondria buffer containing 1% (v/v) protease inhibitor cocktail [210 mM mannitol, 70 mM sucrose, and 1 mM ethylenediaminetetraacetic acid (EDTA), 10 mM HEPES, pH 7.5]. Sequentially, the homogenate was centrifuged at 4° C. for 5 min at 3,000 rpm. The supernatant was further centrifuged at 4° C. for 15 min at 11,000 rpm. The recovered supernatant was ultracentrifuged at 4° C. for 60 min at 100,000 g, and separated into a cytoplasm fraction and a cellular membrane fraction. […] The protein concentration of each fraction was measured using BCA protein assay kit (Thermo Fisher Scientific, Waltham, Mass., USA). […] The immunoreactivity was detected using ECL kit (Invitrogen), and visualized using a chemical luminescence detection system (chemiluminescence detection system; GE Healthcare, Piscataway, N.J., USA). The signal density was measured using an image analysis software (Image Gauge software; GE Healthcare). […]

[2] = test system: 3T3L1-GLUT4myc adipocytes; experiment: Analysis of GLUT4 trafficking (cellular membrane transport of GLUT4); type: cell-based; settings: 20 min
Experimental: 3T3L1-GLUT4myc fibroblast strain expressing GLUT4myc was used. The cells are constructed by inserting human c-MYC epitope (14 amino acids) into the first ectodomain. The cells were cultured in Dulbecco's Modified Eagles Medium (DMEM) added with 10% (v/v) bovine serum, penicillin (final concentration, 100 U/ml) and streptomycin (final concentration, 0.1 mg/ml) in a humid environment under 5% CO2 and 95% air at 37° C. When the cells reached confluence (day 0), the medium was exchanged with DMEM added with 10% (v/v) fetal bovine serum (FBS), 1 μM dexamethasone, 0.5 mM 3-isobutyl-methyl-xanthine and 0.1 mg/ml insulin to allow for differentiation from fibroblast into adipocyte. The medium was exchanged with DMEM added with 10% (v/v) FBS on day 3, day 7 and day 11. On day 14, the cells were used for the experiment.
3T3L1-GLUT4myc adipocytes were incubated in Krebs-Ringer-HEPES buffer [136 mM NaCl, 4.7 mM KCl, 1.25 mM CaCl2, 1.25 mM MgSO4 and 20 mM HEPES, pH 7.5] containing 0.2% (w/v) bovine serum albumin and added with 10 mM glucose at 37° C. for 1 hr. The cells were incubated in the presence or absence of insulin, phospholipid or a derivative thereof for 20 min. Then, the cells were homogenized by sonication in an ice-cooled mitochondria buffer containing 1% (v/v) protease inhibitor cocktail [210 mM mannitol, 70 mM sucrose, and 1 mM ethylenediaminetetraacetic acid (EDTA), 10 mM HEPES, pH 7.5]. Sequentially, the homogenate was centrifuged at 4° C. for 5 min at 3,000 rpm. The supernatant was further centrifuged at 4° C. for 15 min at 11,000 rpm. […] The protein concentration of each fraction was measured using BCA protein assay kit (Thermo Fisher Scientific, Waltham, Mass., USA). […] The immunoreactivity was detected using ECL kit (Invitrogen), and visualized using a chemical luminescence detection system (chemiluminescence detection system; GE Healthcare, Piscataway, N.J., USA). The signal density was measured using an image analysis software (Image Gauge software; GE Healthcare).

With `CCCCCC1CC1CC1CC1CCCCCCCC(=O)OC[C@H](COP(=O)(O)OCCN)OC(=O)CCCCCCCC1CC1CC1CC1CCCCC` (some centres unmarked) [diDCP-LA-PE, 1,2-o-bis-[8-{2-(2-pentyl-cyclopropylmethyl)-cyclopropyl}-octanoyl]-sn-glycero-3-phosphatidylethanolamine] the “PKCζ activation, specificity” value (PKCζ) was “specific activating agent of PKCι and PKCζ”, the “PKC activation, all PKC isozymes” value (PKC isozymes) was “activates all PKC isozymes” and the “Transfer of GLUT4 to cellular membrane, insulin receptor knock-down” value [1] was “can promote transfer of GLUT4 to a cellular membrane in an insulin receptor independent manner”. The “Promotion of cellular membrane transport of GLUT4” value ([2]; 1 μM, FIG. 7) was “an action to promote cellular membrane transport of GLUT4” and the “Concentration dependence of cellular membrane transport of GLUT4” value ([2]; given concentrations, FIG. 8) was “promotes cellular membrane transport of GLUT4 in a concentration-dependent manner”.
